Where a chain is given by its changes, count along the chain named. Read-outs that look alike come from different tables or passages of the source.
Legend:
[1] = target: T1, TbAQP2 (Trypanosoma brucei brucei, UniProt Q6ZXT3)
T1 sequence (Q6ZXT3 1-312): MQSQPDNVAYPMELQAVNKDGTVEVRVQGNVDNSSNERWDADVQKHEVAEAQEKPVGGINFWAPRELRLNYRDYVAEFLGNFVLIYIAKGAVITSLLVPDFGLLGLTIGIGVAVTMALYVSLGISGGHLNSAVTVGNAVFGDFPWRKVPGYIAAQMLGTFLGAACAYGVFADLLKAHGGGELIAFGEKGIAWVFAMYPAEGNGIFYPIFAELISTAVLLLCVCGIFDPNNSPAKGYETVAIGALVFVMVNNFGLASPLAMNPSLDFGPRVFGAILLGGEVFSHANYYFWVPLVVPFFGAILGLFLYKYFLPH

[2] = target: TbAQP2 Asp265Ala (Trypanosoma brucei brucei, UniProt Q6ZXT3, D265A); experiment: cell-based; details: read-out: IC50, pentamidine inhibition of TbAQP2 Asp265Ala
[3] = target: T2, TbAQP2 Leu264Arg (Trypanosoma brucei brucei, UniProt Q6ZXT3, L264R); assay type: cell-based
T2 sequence (Q6ZXT3 1-312 L264R): T1 sequence (Q6ZXT3 1-312) with L264R

Structure (SMILES): NCC(O)CO (centres unmarked) [3-aminopropane-1,2-diol]
- rate of passage through TbAQP2 relative to glycerol ([1]; pH 9.2): two thirds the rate of glycerol

Structure (SMILES): N=CN [formamidine]
- permeability of TbAQP2 for small cations ([1]; not told): impermeable

Structure (SMILES): N=C(N)c1ccc(OCCCCCOc2ccc(C(=N)N)cc2)cc1 [pentamidine]
- IC50 ([2]; pH 2.5): 5.8 µM
- IC50 ([2]; pH 7.2): 4.5 µM
- inhibition of TbAQP2 Leu264Arg [3]: failed to inhibit

Source: publication PMC4734766, “Pentamidine Is Not a Permeant but a Nanomolar Inhibitor of the Trypanosoma brucei Aquaglyceroporin-2” (PLoS Pathogens, 2016)
